# How the values were obtained:
# [1] = test system: mice with chronic constriction injury (PTPN); assay: von Frey PWT, CCI model of PTPN, orally administered compounds; format: in vivo, mouse; details: for PWT, g Mean ± SEM: oral 3x/day 14 days: PI 80, PIA 80, ibuprofen 40 mg/kg, day 14
# Experimental: Phospho-ibuprofen (PI) (Formula III), phospho-ibuprofen-amide (PIA) (Formula XI), ibuprofen and vehicle control were all administered orally, three times a day for 14 days. Their doses were as follows: PI 80 mg/kg, PIA 80 mg/kg, ibuprofen 40 mg/kg (all three are equimolar). […] Group 1: vehicle (n=5-8) • 2. Group 2: ibuprofen (n=5-8) • 3. Group 3: phospho-ibuprofen (PI) (n=5-8) • 4. Group 4: phospho-ibuprofen-amide (PIA) (n=5-8)
# [2] = test system: mice with paclitaxel-induced neuropathic pain (CIPN); assay: von Frey paw withdrawal threshold (mechanical allodynia), paclitaxel-induced CIPN / central sensitization, treatment of established pain, topical test compounds; format: in vivo, mouse; details: for Paw-withdrawal threshold, g Mean ± SEM, Day 0: group value after paclitaxel, before study drug; for PWT: naproxen 2.4%, aspirin […], ibuprofen 2.5% topical both hind paws 3x/day 14 days
# Experimental: Paw withdrawn, licking or shaking were considered positive responses.
# (§1) The first doses were administered 5 days after the last administration of paclitaxel (i.e., at day 0).
# The PWT test was performed prior to the administration of paclitaxel (day −8) to establish the threshold in mice without neuropathic pain associated with CIPN (the value shown is an average of the PWT in all groups at day −8).
# Pain associated with CIPN was established in line with the experiments disclosed herein. Mice were treated with naproxen 2.4% (equimolar to PN 5%), aspirin 1.7% (equimolar to PA2 5%); or ibuprofen 2.5% (equimolar to PI 5%) or vehicle applied topically to both hind paws 3×/day for 14 days.
# CIPN was induced in mice with chemotherapeutic agents using established protocols (Carozzi et al, 2010; Currie et al, 2019; Eldridge et al, 2020).
# The first doses were administered 1 day after the last administration of paclitaxel (i.e., at day 0).
# as §1
# The PWT test was performed on day 21, at the end of the experiment, but was also additionally determined on day 14 for LXIX.
# [3] = test system: mice with chronic constriction injury of the left sciatic nerve (PTPN); assay: von Frey PWT, chronic constriction injury (CCI) model of PTPN, topical compounds; format: in vivo, mouse; details: for PWT, g mean ± SEM, Day 14: NOSH-1, LXIX, LXX 5% on left hind paw 3x/day 14 days; for PWT, g Mean ± SEM, Baseline: group value following ligation, prior to treatment
# Experimental: The PWT test was performed following ligation, but prior to treatment to determine baseline values. The PWT was then further measured on day 14.
# [4] = test system: mice with paclitaxel-induced CIPN; assay: von Frey PWT, paclitaxel CIPN model, orally administered compounds; format: in vivo, mouse; details: for PWT: oral gavage 3x/day 6 days: ibuprofen 40, PI 80, PIA 80, PGI 60 mg/kg, day 6; for PWT, g: 100 mg/kg oral gavage 3x/day
# Source text: CIPN was induced in mice with chemotherapeutic agents using established protocols (Carozzi et al, 2010; Currie et al, 2019; Eldridge et al, 2020). […] This dosing regimen of paclitaxel produces pain associated with CIPN with time courses that are similar to those of pain after paclitaxel administration in cancer patients.
# Group 1: naïve mice (i.e. no paclitaxel, n=8) • 2. Group 2: paclitaxel only (n=8) • 3. Group 3: paclitaxel plus vehicle (n=8) • 4. […] Group 5: paclitaxel pluse sulindac (n=8)
# The PWT test was performed on day 7.
# Phospho-naproxen (PN) and naproxen were given by oral gavage, three times a day for 7 days. Their doses were as follows: PN, 65 mg/kg; naproxen, 35 mg/kg (equimolar to PN). The response of mechanical allodynia to phospho-naproxen (PN) and naproxen was tested on day 7.
# (§2) This dosing regimen of paclitaxel produces pain associated with CIPN with time courses that are similar to those of pain after paclitaxel administration in cancer patients.
# Phospho-ibuprofen (PI) (Formula III), phospho-glycerol-ibuprofen (PGI) (Formula LXXI), phospho-ibuprofen-amide (PIA) (Formula XI), and ibuprofen were given by oral gavage, three times a day for 6 days. Their doses were as follows: ibuprofen, 40 mg/kg; PI, 80 mg/kg; PIA, 80 mg/kg; all three were equimolar.
# The response of mechanical allodynia to these compounds was tested on day 6, using the PWT test.
# as §2
# NO-sulindac (Formula XLIV), HS-sulindac (Formula XXXIV), platinum-sulindac (Formula LXVII), and NOSH-1 (Formula LIX) were given by oral gavage, three times a day throughout the study period. Their doses were all 100 mg/kg.
# The response of mechanical allodynia to these compounds was tested on the days set out in the table below, via the PWT test.
# LXIX was given by oral gavage, once a day for 14 days at a dose of 100 mg/kg.
# The response of mechanical allodynia to these compounds was tested on day 14, via the PWT test.
# [5] = drug levels in proximal and distal half of the sciatic nerve after topical PS; format: in vivo, mouse; details: mouse, in vivo
# Experimental: In a separate experiment we studied 8 mice with paclitaxel-induced PN treated with PS 8% ointment 3×/d for 2 wks. Mice were euthanized as above 30 minutes after the last dose of PS. From these mice we harvested both sciatic nerves dividing each into proximal and distal halves, and combined the corresponding halves of every two animals for assay of drug levels.
# STZ-diabetic rats = format: in vivo, rat; details: rat, in vivo
# Source text: The animal model corresponds to that used for Example 4, but using a prevention protocol. As in Example 4, the outcome measure, determining the effect of the treatment on the prevention of mechanical allodynia, was the PWT test, using von Frey filaments. The measurements were taken at day −3, before treatment or induction of neuropathic pain associated with DPN, and again at the end of the study period (day 28).
# The rats were randomised into treatment groups as follows, all having an average body weight of about 225 g. • 1. Group 1: naïve rats (n=6) • 2. Group 2: STZ only (n=8) • 3. Group 3: STZ plus vehicle (n=8) • 4. […] Group 5: STZ plus sulindac 0.7% (n=8) • 6. Group 6: STZ plus lidocaine cream 5% (n=8)
# Each treatment group was subjected to a PWT assessment at day −3 in order to determine the baseline of mechanical allodynia.
# For those rats in the lidocaine treatment group, lidocaine cream was applied only once to both hind paws of the rats 30 min before the final PWT measurement on day 28. On day 0, neuropathic pain associated with DPN was induced with the administration of STZ, and the blood glucose was checked on day 3.
# [6] = test system: mice with NTG-induced chronic migraine; assay: von Frey PWT, NTG-induced chronic migraine model; format: in vivo, mouse; details: for PWT, g Mean ± SEM, Day 12 (pre-treatment): day 12 after first NTG dose, before compound administration; for PWT, g Mean ± SEM, Baseline: group baseline prior to NTG (Example 17)
# Source text: The NTG-induced chronic migraine model was used as described previously.
# [7] = test system: mice with paclitaxel-induced CIPN; assay: thermal allodynia (paw withdrawal latency, radiant heat), paclitaxel CIPN model; format: in vivo, mouse; details: NO-sulindac, HS-sulindac 5% topical 3x/day
# Experimental: Group 3: paclitaxel pluse sulindac (n=8)
# Thermal allodynia was also determined for the mice study groups below (with 8 mice per group): • 1. Group 1: naïve mice (i.e. no paclitaxel) • 2. Group 2: paclitaxel only • 3. Group 3: paclitaxel plus vehicle • 4. Group 4: paclitaxel plus NO-sulindace • 5. Group 5: paclitaxel plus thiol-sulindac
# [8] = test system: mice with NTG-induced migraine; assay: von Frey PWT, NTG-induced migraine model, oral or intraperitoneal compounds; format: in vivo, mouse; details: oral 30 min after NTG: PS 50, sulindac 33, PN 65, naproxen 35 mg/kg; 30 min after administration
# Experimental: Phosphonaproxen (Formula VIII), and its parent compound, naproxen, were administered orally to each mouse group. All compounds were administered at equimolar doses. In particular, phosponaproxen was administered at 65 mg/kg, and naproxen was administered at 35 mg/kg, 30 minutes after NTG administration. The response of mechanical allodynia was tested 30 minutes after administration.
compound,measurement,setting,value
"CCOP(=O)(OCC)OCCCCOC(=O)C(C)c1ccc(CC(C)C)cc1 (stereo not shown) [PI, phospho-ibuprofen]","PWT, g Mean ± SEM",[1],0.82 ± 0.07 g
same,"Paw-withdrawal threshold, g Mean ± SEM, Day 0",[2],0.64 ± 0.05 g
same,"Paw-withdrawal threshold, g Mean ± SEM, Day 14","[2]; mouse, in vivo",0.8 ± 0.07 g
same,"PWT, g Mean ± SEM","[3]; PI, PN 5% on left hind paw 3x/day 14 days, day 14",1.54 ± 0.19 g
same,PWT,[4],1.41 ± 0.23 g
CC1=C(CC(=O)O)c2cc(F)ccc2/C1=C\c1ccc(S(C)(=O)=O)cc1 [sulindac sulfone],Fold difference distal vs proximal,[5],4.5
"CCOP(=O)(OCC)OCCCCNC(=O)C(C)c1ccc(CC(C)C)cc1 (stereo not shown) [PIA, phosphoibuprofen-amide]",PWT,"[1]; PIA 80 mg/kg oral 3x/day, day 5",1.43 ± 0.19 g
same,"PWT, g Mean ± SEM",[1],1.74 ± 0.12 g
same,PWT,[4],1.79 ± 0.40 g
"CCOP(=O)(OCC)OCC(CNC(=O)C(C)c1ccc(CC(C)C)cc1)OP(=O)(OCC)OCC (stereo not shown) [PGIA, phospho-glycerol-ibuprofen-amide]","PWT, g Mean ± SEM","[2]; mouse, in vivo",1.70 ± 0.25 g
platinum-sulindac [Pt-sulindac],"PWT, g",[4]; D 2,D 2 = 1.01 ± 0.17 g
same,"PWT, g",[4]; D 4,D 4 = 1.03 ± 0.19 g
same,"PWT, g",[4]; D 13,D 13 = 1.34 ± 0.07 g
"CCOP(=O)(OCC)OCC(COC(=O)C(C)c1ccc(CC(C)C)cc1)OP(=O)(OCC)OCC (stereo not shown) [PGI, phospho-glycerol-ibuprofen]",PWT,[4],1.60 ± 0.11 g
"CC(=O)Oc1ccccc1C(=O)O [Aspirin, aspirin, reference compound]",PWT,[2],0.69 ± 0.10 g
NO-aspirin,"PWT, g Mean ± SEM","[2]; paclitaxel 8 mg/kg x4, 5% topical both hind paws 3x/day, Day 8",1.47 ± 0.08 g
CCN(CC)CC(=O)Nc1c(C)cccc1C [lidocaine],"von Frey, gm mean ± SEM",STZ-diabetic rats,34.3 ± 1.6 gm
CC(C(=O)Oc1ccc(C(N)=S)cc1)c1cccc(C(=O)c2ccccc2)c1 (stereo not shown) [LXX],"PWT, g mean ± SEM, Day 14",[3],1.28 ± 0.29 g
same,"PWT, g Mean ± SEM, Baseline",[3],0.58 ± 0.07 g
CCOP(=O)(OCC)OCC(COC(=O)c1ccccc1OC(C)=O)OP(=O)(OCC)OCC (stereo not shown) [glycero-phospho-aspirin II],"Paw-withdrawal threshold, g Mean ± SEM, Day 0",[2],0.66 ± 0.05 g
same,"Paw-withdrawal threshold, g Mean ± SEM, Day 14","[2]; mouse, in vivo",0.69 ± 0.06 g
COc1ccc2cc(C(C)C(=O)Oc3ccc(C(N)=S)cc3)ccc2c1 (stereo not shown) [LXIX],"PWT, g Mean ± SEM","[2]; LXIX 5% topical both hind paws 3x/day, Day 14",Day 14 = 0.86 ± 0.10 g
same,"PWT, g Mean ± SEM","[2]; LXIX 5% topical both hind paws 3x/day, Day 21",Day 21 = 1.20 ± 0.14 g
same,"PWT, g mean ± SEM, Day 14",[3],1.35 ± 0.23 g
same,"PWT, g Mean ± SEM, Baseline",[3],0.55 ± 0.09 g
same,"PWT, g Mean ± SEM","[4]; LXIX 100 mg/kg oral gavage once a day 14 days, day 14",0.93 ± 0.14 g
"CNS(=O)(=O)Cc1ccc2[nH]cc(CCN(C)C)c2c1 [Sumatriptan, sumatriptan]","PWT, g Mean ± SEM, Day 12 (pre-treatment)",[6],0.57 ± 0.02 g
same,"PWT, g Mean ± SEM, Baseline",[6],1.90 ± 0.06 g
"CC(C)Cc1ccc(C(C)C(=O)O)cc1 (stereo not shown) [Ibuprofen, ibuprofen, reference compound]","PWT, g Mean ± SEM",[1],0.58 ± 0.02 g
same,PWT,[2],0.60 ± 0.08 g
same,PWT,[4],0.53 ± 0.05 g
"O=C(CCCO[N+](=O)[O-])Oc1ccccc1C(=O)Oc1ccc(-c2cc(=S)ss2)cc1 [NOSH1, NOSH-aspirin]","PWT, g mean ± SEM, Day 14",[3],2.00 ± 0.00 g
same,"PWT, g Mean ± SEM, Baseline",[3],0.60 ± 0.00 g
same,"PWT, g",[4]; D 2,D 2 = 0.93 ± 0.17 g
same,"PWT, g",[4]; D 4,D 4 = 1.39 ± 0.15 g
same,"PWT, g",[4]; D 13,D 13 = 1.33 ± 0.11 g
CC1=C(CC(=O)Oc2ccc(-c3cc(=S)ss3)cc2)c2cc(F)ccc2/C1=C\c1ccc([S+](C)[O-])cc1 (stereo not shown) [HS-sulindac],"PWL, sec Mean ± SEM",[7],9.9 ± 0.6 s
same,"PWT, g Mean ± SEM","[2]; paclitaxel 8 mg/kg x4, 5% topical both hind paws 3x/day 17 days",0.99 ± 0.15 g
same,"PWT, g",[4]; D 2,D 2 = 0.90 ± 0.09 g
same,"PWT, g",[4]; D 4,D 4 = 1.10 ± 0.05 g
same,"PWT, g",[4]; D 13,D 13 = 1.23 ± 0.06 g
"CC1(C)O[C@@H]2[C@@H](CO[C@@]3(COS(N)(=O)=O)OC(C)(C)O[C@@H]23)O1 [Topiramate, topiramate]","PWT, g Mean ± SEM, Day 12 (pre-treatment)",[6],0.60 ± 0.00 g
same,"PWT, g Mean ± SEM, Baseline",[6],2.40 ± 0.24 g
"COc1ccc2cc([C@H](C)C(=O)O)ccc2c1 [Naproxen, naproxen, reference compound]","PWT, g Mean ± SEM",[8],0.56 ± 0.02 g
same,PWT,[2],0.61 ± 0.11 g
same,"PWT, g Mean ± SEM","[4]; paclitaxel 8 mg/kg x4, oral gavage 3x/day 7 days: PS 50, sulindac 33, PN 65, naproxen 35 mg/kg, day 7",0.53 ± 0.05 g

# — patent publication US20260102413A1, “TREATING PAIN ASSOCIATED WITH CENTRAL SENSITIZATION” (Medicon Pharmaceuticals, Inc., priority 2022, published 2026)
